Measured values as given in patent US8552050B2, “Activators of pyruvate kinase M2 and methods of treating disease” (Beth Israel Deaconess Medical Center, priority 2007, dated 2013).
Values belong to the compound of their own block, whether it stands above or below them. Square brackets hold non-standard residues; d marks the D form. Ends that are not written are not given here. pY = N[C@@H](Cc1ccc(OP(=O)(O)O)cc1)C(=O)O

How the values were obtained:
PKM2 [1] = molecular target: T1, PKM2 (Homo sapiens, UniProt P14618); experiment: PKM2 inhibition assay, LDH-coupled, FBP added in excess; type: biochemical; settings: read-out: Inhibition of PKM2 Activity
Procedure: (§1) For the inhibition assays, a candidate compound (2 μl 100×) was added into a well. In a control well, 2 μl of DMSO was added in place of the candidate compound. […] The mixture incubated at room temperature for 30 minutes. Immediately prior to measurement readings, 10 μl PEP (0.5 mM) and 2 μl FBP/H2O (0.5 μM) were added to each well. The FBP was added in excess.
Target sequence in this assay (P14618 whole entry): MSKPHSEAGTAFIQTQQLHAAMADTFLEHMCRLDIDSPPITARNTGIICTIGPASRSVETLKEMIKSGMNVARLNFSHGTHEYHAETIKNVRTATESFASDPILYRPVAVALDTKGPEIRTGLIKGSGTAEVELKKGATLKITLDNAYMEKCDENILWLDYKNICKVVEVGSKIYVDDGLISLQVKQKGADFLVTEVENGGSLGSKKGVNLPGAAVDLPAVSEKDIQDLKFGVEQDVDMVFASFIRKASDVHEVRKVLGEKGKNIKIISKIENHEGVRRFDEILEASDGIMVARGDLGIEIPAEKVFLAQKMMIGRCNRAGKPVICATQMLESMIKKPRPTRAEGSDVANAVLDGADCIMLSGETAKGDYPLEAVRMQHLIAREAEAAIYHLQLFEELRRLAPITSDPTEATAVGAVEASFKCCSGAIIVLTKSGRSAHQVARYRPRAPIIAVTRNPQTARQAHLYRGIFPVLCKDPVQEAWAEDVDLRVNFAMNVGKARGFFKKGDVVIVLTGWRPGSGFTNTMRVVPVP

recombinant PKM1 = molecular target: T2, recombinant PKM1 (Homo sapiens, UniProt P14618); experiment: 14C-FBP retention on protein after dialysis, scintillation counting; type: binding; settings: ~10 μM 14C-FBP, 1 μM protein
T2 construct: made in house
T2 sequence (P14618 1-531 isoform P14618-2, species assumed): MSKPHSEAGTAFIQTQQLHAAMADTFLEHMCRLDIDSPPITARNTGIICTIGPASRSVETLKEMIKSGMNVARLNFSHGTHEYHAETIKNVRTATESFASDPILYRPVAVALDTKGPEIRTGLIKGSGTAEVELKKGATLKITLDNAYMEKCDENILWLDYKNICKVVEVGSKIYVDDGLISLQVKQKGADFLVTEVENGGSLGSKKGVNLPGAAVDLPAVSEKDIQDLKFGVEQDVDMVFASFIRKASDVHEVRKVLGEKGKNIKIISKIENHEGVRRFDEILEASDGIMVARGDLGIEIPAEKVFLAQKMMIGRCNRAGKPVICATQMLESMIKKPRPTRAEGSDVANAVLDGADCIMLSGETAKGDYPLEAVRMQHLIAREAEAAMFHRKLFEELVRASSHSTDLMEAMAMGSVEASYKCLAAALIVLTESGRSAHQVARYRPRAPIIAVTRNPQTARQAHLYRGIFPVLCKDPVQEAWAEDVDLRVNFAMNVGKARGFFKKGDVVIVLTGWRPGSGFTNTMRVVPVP
Procedure: (§2) However, FBP concentrations following protein purification would be orders of magnitude lower than this value. […] The PKM1, PKM2, and no-protein control were incubated with ^14C-FBP for 30 minutes at room temperature and then […] dialyzed against >2 L of buffer using 10,000 MWCO dialysis cassettes (Pierce) for at least 7 hours. After dialysis, samples were recovered and the amount of ^14C-FBP retained in each dialysis cassette was determined by scintillation counting. […] Upon further analysis, it was estimated that ^14C FBP is retained at roughly half a mole per mole on the PKM2 protein.

PKM2 [2] = molecular target: T1, PKM2; experiment: as above; type: binding; design: His6 (N); made in house; host or cells: E. coli BL21(DE3)pLysS
Procedure: as §2
Target sequence in this assay (P14618 whole entry): as the sequence (P14618 whole entry) above

PKM2 [3] = molecular target: T1, PKM2; settings: Yamada and Noguchi 1999; cited from earlier work
Target sequence in this assay (P14618 whole entry, species assumed): as the sequence (P14618 whole entry) above

PKM2 [4] = molecular target: T1, PKM2; experiment: FBP competition for binding of recombinant PKM2 to phosphoTyr peptide affinity matrix; design: His6 (N); made in house; host or cells: E. coli BL21(DE3)pLysS; settings: FIG. 2b
Procedure: To determine if the FBP binding pocket on PKM2 coordinates phosphoTyr peptide binding, it was assessed whether FBP could compete for binding of PKM2 to a phosphoTyr peptide library column. Recombinant protein was synthesized by cloning human PKM2 into a pET28a vector (Novagen) at NdeI and BamHI sites and PKM2 was expressed as a N-terminal His6 tag fusion protein. The protein was expressed and purified with a standard protocol. Briefly, pET28a-PKM2 was transformed into BL2 I (DE3)pLysS cells and grown to an OD600 of 0.8 and induced with 0.5 mM IPTG for seven hours at room temperature. Cells were lysed using lysozyme in lysis buffer (50 mM Tris, pH 8.0, 10 mM MgCl2, 200 mM NaCl, 100 mM KCl, 20% glycerol, 10 mM imidazole, 1 mM PMSF). The cell lysate was cleared by centrifugation. PKM2 was purified by batch binding to Ni—NTA resin (Qiagen). The resin was then washed with lysis buffer containing 30 mM imidazole for 200 column volumes, and His6-tag-PKM2 was eluted with 250 mM imidazole. The protein was dialyzed overnight at 4° C. to remove the imidazole.
Recombinant PKM2 was incubated with increasing amounts of FBP and then flowed over the phosphoTyr peptide affinity matrix. 20 μM FBP was able to compete for binding of recombinant PKM2 to phosphoTyr peptides (FIG. 2b). […]
Target sequence in this assay (P14618 whole entry): as above

PKM2 [5] = molecular target: T1, PKM2; experiment: PKM2 activator assay, LDH-coupled, no FBP added; type: biochemical
Procedure: as §1, with “the activator” for “the inhibition”, “for 5” for “for 30”, “mM)” for “mM) and 2 μl FBP/H2O (0.5 μM)”, “well. No” for “well. The”, “was added.” for “was added in excess.”
Target sequence in this assay (P14618 whole entry): as above

M1 and M2 rescue cells = experiment: Proliferation of M1 and M2 rescue cells with oligomycin; type: cell-based, human; settings: subsaturating oligomycin (125 nM); M1 vs M2 rescue cells
Procedure: To examine whether PKM2 expression enhances tumor cell growth under lowered oxygen and glucose conditions, proliferation rates of the M1 and M2 rescue cells (M2 knockdown cells expressing mM1 or mM2) were measured in physiologic glucose levels and hypoxic oxygen. […] The percent decrease in oxygen consumption following addition of subsaturating amounts of oligomycin, a specific inhibitor of mitochondrial ATP synthase, was the same in both the M1 and M2 cells.
5×10^4 cells were seeded in triplicate in 6-well plates and accurate cell counts were obtained every 24 hours using a Coulter particle analyzer for a 3-5 day period. Time zero was taken 16 hours post-seeding. Cells grown in low oxygen were incubated in a sealed hypoxia chamber set to 0.5% oxygen. Cells grown in the presence of oligomycin were treated with 125 nM oligomycin at time zero.

PKM2 [6] = molecular target: T1, PKM2; experiment: Release of 14C-FBP from FBP-loaded recombinant PKM2 after peptide exposure and dialysis; type: binding; design: His6 (N); made in house; host or cells: E. coli BL21(DE3)pLysS; settings: 14C counts retained after dialysis; FIG. 4e
Procedure: To examine the effect of phosphoTyr peptide binding on FBP-bound PKM2, a peptide-binding motif for PKM2 was obtained using traditional peptide library screening. Both the phosphorylated (P-M2tide) and unphosphorylated (NP-M2tide) versions of the optimal peptide were synthesized: P-M2tide (GGAVDDDpYAQFANGG SEQ ID NO:1) and NP-M2tide (GGAVDDDYAQFANGG SEQ ID NO:2) (FIG. 5). The FBP-loaded recombinant PKM2 was incubated with P-M2tide or NP-M2tide, the unbound FBP and peptide were dialyzed away, and the counts retained on the PKM2 were measured.
Target sequence in this assay (P14618 whole entry): as above

PKM2 [7] = molecular target: T1, PKM2; experiment: Recombinant PKM2 activity with P-M2tide / NP-M2tide, LDH-coupled assay; type: biochemical; design: His6 (N); made in house; host or cells: E. coli BL21(DE3)pLysS; settings: dose-dependent; FIG. 6a
Text: Multiple phosphoTyr peptides comprising in vivo phosphorylation sites previously identified on metabolic proteins (Villen et al., Proc. Natl. Acad. Sci. USA 104: 1488-93, 2007) were synthesized. Several of these phosphoTyr peptides, as well as multiple phosphoTyr peptides designed after known tyrosine kinase motifs, were also shown to inhibit PKM2 activity (FIG. 6b).
Target sequence in this assay (P14618 whole entry): as above

Flag-tagged PKM2 = molecular target: T3, Flag-tagged PKM2 (Mus musculus, UniProt P52480); experiment: 3H bound to immunoprecipitated Flag-tagged PKM2 in cells cultured with 3H-glucose; type: cell-based; settings: 15-minute treatment with pervanadate
T3 construct: expressed in transfected cells
T3 sequence (P52480 whole entry): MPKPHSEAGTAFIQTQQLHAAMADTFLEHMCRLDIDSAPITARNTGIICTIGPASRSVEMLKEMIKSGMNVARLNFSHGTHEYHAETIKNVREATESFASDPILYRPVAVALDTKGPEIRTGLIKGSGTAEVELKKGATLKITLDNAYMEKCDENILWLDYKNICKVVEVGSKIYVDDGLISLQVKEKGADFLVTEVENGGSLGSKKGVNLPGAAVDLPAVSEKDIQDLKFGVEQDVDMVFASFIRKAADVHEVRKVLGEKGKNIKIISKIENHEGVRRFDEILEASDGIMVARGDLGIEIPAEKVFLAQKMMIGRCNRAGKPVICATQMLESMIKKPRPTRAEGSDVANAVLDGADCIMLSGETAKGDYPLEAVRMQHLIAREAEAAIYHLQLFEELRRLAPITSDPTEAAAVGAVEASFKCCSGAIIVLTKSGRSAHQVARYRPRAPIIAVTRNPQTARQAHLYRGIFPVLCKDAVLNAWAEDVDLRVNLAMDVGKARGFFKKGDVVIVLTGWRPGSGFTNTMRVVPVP
Procedure: Next, the ability of phosphoTyr protein binding to catalyze the release of FBP from PKM2 in vivo was tested. To address this, cells were cultured overnight with ^3H-glucose that can be metabolized to ^3H-FBP. Flag-tagged PKM2 was immunoprecipitated and the amount of ^3H bound to PKM2 with and without pervanadate-treatment was determined by scintillation counting.

PKM2-expressing cells [8] = experiment: Incorporation of metabolites from 14C-glucose into lipids; type: cell-based
Text: (§3) Consistent with this model, a 25% increase in the incorporation of metabolites from ^14C-glucose into lipids upon pervanadate-treatment of PKM2-expressing cells was observed. […] A similar increase in the incorporation of ^14C-glucose metabolites into lipids was observed upon pervanadate stimulation of 293 cells.

pyruvate kinase = settings: pervanadate stimulation
Procedure: Pyruvate kinase activity was measured according to published methods by a continuous assay coupled to lactate dehydrogenase (LDH). The change in absorbance at 340 nm due to oxidation of NADH was measured using a Victor^3 1420 Multilabel Counter spectrophotometer (PerkinElmer, Inc.). Kinetic assays for activity determinations contained recombinant PK (20-100 ng) or cell lysate (1-2 μg), Tris (pH 7.5) (50 mM), KCl (100 mM), MgCl2 (5 mM), ADP (0.6 mM), PEP (0.5 mM), NADH (180 pM), FBP (10 pM), and LDH (8 units).

PKM2-expressing cells [9] = experiment: Cellular oxygen consumption after acute pervanadate stimulation; type: cell-based
Procedure: as §3
Cellular oxygen consumption rates were measured using a water-jacketed (37° C.) anaerobic chamber fitted with a polarographic oxygen electrode as described previously (Vander Heiden et al, Mol Cell Biol 21: 5899-912, 2001). The electrode was calibrated with 150 mM NaCl equilibrated to room air at 37° C. (corresponding to 199 nmol O2/ml).

inhibition at 10 µM (PKM2 [1]; 0.01 mM compound): 21%
inhibition at 100 µM (PKM2 [1]; 0.1 mM compound): 36%
inhibition at 1000 µM (PKM2 [1]; 1 mM compound): 55%
Compound: Cc1ccc(C)n1-c1ccc(O)c(C(=O)O)c1

14C FBP retained on the PKM2 protein (PKM2 [2]; estimated upon further analysis): roughly half
more 14C counts than PKM1 sample and no-protein control (PKM2 [2]; ~10 μM 14C-FBP, 1 μM protein, after dialysis): 52±5%
FBP concentration able to compete for binding of recombinant PKM2 to phosphoTyr peptides (PKM2 [4]): 20 µM
% Activation of PKM2 by FBP (PKM2 [5]; 0.1 μM FBP): 62%
% Activation of PKM2 by FBP (PKM2 [5]; 0.3 μM FBP): 89%
% Activation of PKM2 by FBP (PKM2 [5]; 1 μM FBP): 114%
Compound: O=C(COP(=O)(O)O)[C@@H](O)[C@H](O)[C@H](O)COP(=O)(O)O [FBP, fructose-1,6-bisphosphate]
14C counts retained in PKM1 sample (recombinant PKM1): same amount of ^14C counts as the no-protein control sample
Ka values for FBP binding to PKM2 (PKM2 [3]): micromolar range

Compound: CC[C@H]1/C=C/C=C/C[C@@H](C)[C@H](O)[C@@](C)(O)C(=O)[C@@H](C)[C@H](O)[C@@H](C)C(=O)[C@@H](C)[C@H](O)[C@@H](C)/C=C/C(=O)O[C@@H]2[C@H](C)[C@H](CC1)O[C@]1(CC[C@H](C)[C@H](C[C@@H](C)O)O1)[C@H]2C [oligomycin]
effect on proliferation rate (M1 and M2 rescue cells): affected the proliferation rate of the M1 cells significantly more than the M2 cells

Compound: GGAVDDDYAQFANGG [NP-M2tide]
FBP retained on / released from PKM2 (PKM2 [6]): significant amount of FBP remaining bound to PKM2

FBP retained on / released from PKM2 (PKM2 [6]): release of the majority of the FBP
inhibition of PKM2 activity (PKM2 [7]): 20-30%
Compound: GGAVDDDpYAQFANGG (GGAVDDD[pY]AQFANGG) [P-M2tide]

Compound: pervanadate
reduction in 3H that immunoprecipitated with PKM2 (Flag-tagged PKM2): 30±13%
increase in the incorporation of metabolites from 14C-glucose into lipids (PKM2-expressing cells [8]; PKM2-expressing cells): 25%
14C incorporation into lipids (PKM2-expressing cells [8]; cells expressing the KE point mutant of PKM2): no significant increase
decrease in total pyruvate kinase activity (pyruvate kinase; 293, A549 and H1299 cells, FIG. 6c): 20-30%
pyruvate kinase activity in M1-, M2-, M2KE-, L-expressing knockdown cells (pyruvate kinase; H1299 knockdown/rescue cells, FIG. 6g): specific inhibition of pyruvate kinase activity only in the wild-type M2-expressing cells
decrease in oxygen consumption (PKM2-expressing cells [9]; M2KE-expressing cells): 15±4%
decrease in oxygen consumption (PKM2-expressing cells [9]; PKM2-expressing cells): 36±1%
